Data on 11 compounds can be found in patent publication US20120214824A1, “PROTEOSTASIS REGULATORS” (priority 2010, published 2012).

Holding throughout (assay): Multigene assay (QuantiGene Plex 2.0), mouse MEF cell line
What all share (assay type): cell-based
What all share (conditions): 6 hours post-compound treatment

One assay relates to BCL2. The method, then: (§1) This assay used the QuantiGene Plex 2.0 Reagent System from Affymetrix. This assay combines the use of bDNA (branch DNA) and xMAP magnetic capture beads from Luminex Technologies to quantitatively and simultaneously detect multiple mRNA transcripts per well. The overall procedure was performed according to the QuantiGene Plex 2.0 Reagent System instruction manual from Affymetrix.
(§2) Cells were seeded at a density of 12,000 cells/well in 96-well plates with an overnight incubation at 37° C., 5% CO2. Cells were treated with serially diluted compounds in a 7-point dose dependent manner. Cell lysis with 50% [v/v] Panomics Lysis Mixture (Lysis Mixture+10 μl/ml 25 Proteinase K) was performed 6 hours post-compound treatment. Lysed cells were heated at 50° C. to ensure appropriate lysing and the plates were then frozen at −80° C. Cell lysates, thawed at room temperature on the day of the assay, were pooled with mouse 8-gene multiplex probe sets and with 8 different sets of magnetic capture beads (Luminex Technology, Austin, Tex.) in a 100 μl/well volume. Biomek FX was used at every liquid transfer step. The eight plates containing lysate-probe-bead mixtures were incubated at 54° C.±1° C. on a shaking platform for an overnight incubation in the dark (18-20 hours). The following day the hybridization plates were compressed by transferring the hybridized lysates into a single magnetic capture plate. The plate was kept on a magnet to hold the beads and then washed with Panomics Wash Buffer 2.0 on a BioTek ELx405 select plate washer to remove any unbound sample. This step was followed by serial hybridizations and washings of the bDNA pre-amplifier (1 hour, 50° C.), bDNA amplifier (1 hour, 50° C.), label probe (1 hour, 50° C.), and streptavidin-phycoerythrin (SAPE, 30 minutes, room temperature). (Zhang, A. et al. Small interfering RNA and gene expression analysis using a multiplex branched DNA assay without RNA purification. J Biomol Screen 10, 549-56 (2005)). The plate was then washed with SAPE wash buffer to remove unbound SAPE and each well was analyzed with the Luminex FlexMap3D (Luminex, Austin, Tex.). SAPE fluorescence measured from each bead was proportional to the number of mRNA transcripts captured by the beads (Zheng, Z., Luo, Y. & McMaster, G. K. Sensitive and quantitative measurement of gene expression directly from a small amount of whole blood. Clin Chem 52, 1294-302 (2006)). Fold changes in gene expression were obtained for each gene per well by normalizing the raw data first to the DMSO control and then to a housekeeping gene (TBP-TATA binding protein or Tub1-alpha-tubulin).

A further assay relates to DDIT3. The method, then: as §1, §2
For a further assay, the system named is GCLM. The method, then: as §1, §2
The test system of a further assay is HMOX. The method, then: as §1, §2
The next assay concerns HSPA1a. The method, then:
as §1, §2

A further assay has as its system HspA5. The method, then: as §1, §2
A further assay has as its system TUB1. The method, then:
as §1, §2

Take `CCCc1n[nH]c2c1C(C1CC=CCC1)C(C#N)=C(N)O2` (centres unmarked): the BCL2 gene induction result with BCL2 (Table 5) is recorded as “— (— Indicates less than 2 fold induction)”. Also, the DDIT3 gene induction entry in the assay on DDIT3 (Table 5) is “— (— Indicates less than 2 fold induction)”. In addition, in the assay on GCLM (Table 5), the GCLM gene induction result was “+ (+ indicates a induction of greater than 2 fold)”. Besides, the HMOX gene induction entry in the assay with HMOX (Table 5) is listed as “+ (+ indicates a induction of greater than 2 fold)”. Besides, in the assay with HSPA1a (Table 5), the HSPA1a gene induction entry is “— (— Indicates less than 2 fold induction)”. In addition, the HspA5 gene induction result in the assay on HspA5 (Table 5) is on record as “— (— Indicates less than 2 fold induction)”. Besides, in the assay with TUB1 (Table 5), the TUB1 gene induction result was “— (— Indicates less than 2 fold induction)”.
Turning to `COC(=O)C1=C(C)Nc2c(c(=O)n(C)c(=O)n2C)C1c1ccc(F)cc1` (centres unmarked) [A], the BCL2 gene induction result in the assay on BCL2 (Table 6) is listed as “+ (+ indicates a induction of greater than 2 fold)”. In addition, the DDIT3 gene induction entry in the assay with DDIT3 (Table 6) is listed as “+ (+ indicates a induction of greater than 2 fold)”. Also, the GCLM gene induction entry in the assay on GCLM (Table 6) is reported as “— (— Indicates less than 2 fold induction)”. Besides, the HMOX gene induction entry in the assay on HMOX (Table 6) was “— (— Indicates less than 2 fold induction)”. For the same compound, the HSPA1a gene induction result in the assay with HSPA1a (Table 6) is on record as “— (— Indicates less than 2 fold induction)”. Further, the HspA5 gene induction entry in the assay on HspA5 (Table 6) was “— (— Indicates less than 2 fold induction)”. Besides, the TUB1 gene induction entry in the assay on TUB1 (Table 6) is given as “— (— Indicates less than 2 fold induction)”.
Take `CCn1c2c(c(=O)[nH]c1=O)C(c1cccc3ccccc13)C1=C(N2)c2ccccc2C1=O` (centres unmarked) [B]: the BCL2 gene induction entry with BCL2 (Table 6) was “— (— Indicates less than 2 fold induction)”. Moreover, the DDIT3 gene induction entry in the assay on DDIT3 (Table 6) is “+ (+ indicates a induction of greater than 2 fold)”. Besides, in the assay with GCLM (Table 6), the GCLM gene induction result is reported as “— (— Indicates less than 2 fold induction)”. Moreover, the HMOX gene induction result with HMOX (Table 6) was “+ (+ indicates a induction of greater than 2 fold)”. Besides, the HSPA1a gene induction result with HSPA1a (Table 6) is “+ (+ indicates a induction of greater than 2 fold)”. In addition, in the assay with HspA5 (Table 6), the HspA5 gene induction entry was “— (— Indicates less than 2 fold induction)”. The TUB1 gene induction result in the assay on TUB1 (Table 6) is on record as “— (— Indicates less than 2 fold induction)”.
Take `COCC1=C(C(=O)OCC(C)C)C(c2ccc(F)cc2)C2=C(CC(c3cccs3)CC2=O)N1` (centres unmarked) [drawing 26/CH2OMe/COOCH2CHMe2/p-F]: the BCL2 gene induction entry in the assay with BCL2 (Table 1b) was “− (− Indicates less than 2 fold induction)”. In the assay with DDIT3 (Table 1a), the DDIT3 gene induction entry is on record as “+ (+ indicates a induction of greater than 2 fold)”. Further, the GCLM gene induction entry with GCLM (Table 1a) is reported as “− (− Indicates less than 2 fold induction)”. In the assay on HMOX (Table 1b), the HMOX gene induction entry is reported as “+ (+ indicates a induction of greater than 2 fold)”. In the assay on HSPA1a (Table 1b), the HSPA1a gene induction result is “− (− Indicates less than 2 fold induction)”. In the assay with HspA5 (Table 1b), the HspA5 gene induction entry is on record as “− (− Indicates less than 2 fold induction)”. Further, the TUB1 gene induction entry with TUB1 (Table 1a) was “− (− Indicates less than 2 fold induction)”.
For the compound `COc1ccccc1C1C(C#N)=C(C)NC2=C1C(=O)CC(c1ccccc1)C2` (centres unmarked) [drawing 27/Me/CN/o-OMe/H], the BCL2 gene induction result in the assay on BCL2 (Table 2b) was “− (− Indicates less than 2 fold induction)”. Further, the DDIT3 gene induction entry in the assay with DDIT3 (Table 2a) is recorded as “− (− Indicates less than 2 fold induction)”. Moreover, in the assay with GCLM (Table 2a), the GCLM gene induction entry was “− (− Indicates less than 2 fold induction)”. For the same compound, the HMOX gene induction result in the assay with HMOX (Table 2b) was “− (− Indicates less than 2 fold induction)”. For the same compound, the HSPA1a gene induction result in the assay with HSPA1a (Table 2b) is “+ (+ indicates a induction of greater than 2 fold)”. Moreover, in the assay with HspA5 (Table 2b), the HspA5 gene induction entry is on record as “− (− Indicates less than 2 fold induction)”. Besides, the TUB1 gene induction result with TUB1 (Table 2a) is reported as “− (− Indicates less than 2 fold induction)”.
Take `COc1ccc(C2CC(=O)C3=C(C2)NC(C)=C(C(=O)OCC(C)C)C3c2cccc(F)c2)cc1` (centres unmarked) [drawing 27/Me/COOCH2CHMe2/m-F/OMe]: in the assay with BCL2 (Table 2b), the BCL2 gene induction result was “+ (+ indicates a induction of greater than 2 fold)”. The DDIT3 gene induction entry in the assay on DDIT3 (Table 2a) is recorded as “− (− Indicates less than 2 fold induction)”. In addition, in the assay with GCLM (Table 2a), the GCLM gene induction result is “+ (+ indicates a induction of greater than 2 fold)”. For the same compound, in the assay on HMOX (Table 2b), the HMOX gene induction result is listed as “+ (+ indicates a induction of greater than 2 fold)”. Further, the HSPA1a gene induction entry with HSPA1a (Table 2b) is listed as “+ (+ indicates a induction of greater than 2 fold)”. Further, the HspA5 gene induction result with HspA5 (Table 2b) is “− (− Indicates less than 2 fold induction)”. For the same compound, the TUB1 gene induction result in the assay on TUB1 (Table 2a) is “− (− Indicates less than 2 fold induction)”.
On to `CC1=C(C(=O)OCC(C)C)C(c2ccccc2OC(C)C)C2=C(CC(c3ccccc3)CC2=O)N1` (centres unmarked) [drawing 27/Me/COOCH2CHMe2/o-OCHMe2/H], for which the BCL2 gene induction result in the assay on BCL2 (Table 2b) was “− (− Indicates less than 2 fold induction)”. For the same compound, the DDIT3 gene induction result in the assay on DDIT3 (Table 2a) is on record as “+ (+ indicates a induction of greater than 2 fold)”. The GCLM gene induction entry in the assay on GCLM (Table 2a) is on record as “− (− Indicates less than 2 fold induction)”. In addition, the HMOX gene induction result with HMOX (Table 2b) is “− (− Indicates less than 2 fold induction)”. For the same compound, the HSPA1a gene induction result with HSPA1a (Table 2b) is recorded as “− (− Indicates less than 2 fold induction)”. Besides, the HspA5 gene induction entry with HspA5 (Table 2b) was “− (− Indicates less than 2 fold induction)”. The TUB1 gene induction entry with TUB1 (Table 2a) is “− (− Indicates less than 2 fold induction)”.
With `N#CC1=C(N)Oc2[nH]nc(C34CC5CC(CC(C5)C3)C4)c2C1c1cccs1` (centres unmarked) [drawing 29/1-Adamantyl/H/H/S], in the assay with BCL2 (Table 4b), the BCL2 gene induction entry is “− (− Indicates less than 2 fold induction)”. The DDIT3 gene induction result with DDIT3 (Table 4a) is “− (− Indicates less than 2 fold induction)”. Also, the GCLM gene induction entry in the assay on GCLM (Table 4a) is “+ (+ indicates a induction of greater than 2 fold)”. Further, the HMOX gene induction entry in the assay on HMOX (Table 4b) was “+ (+ indicates a induction of greater than 2 fold)”. In addition, the HSPA1a gene induction result in the assay with HSPA1a (Table 4b) was “− (− Indicates less than 2 fold induction)”. Besides, the HspA5 gene induction result in the assay with HspA5 (Table 4b) is reported as “− (− Indicates less than 2 fold induction)”. For the same compound, the TUB1 gene induction entry with TUB1 (Table 4a) is listed as “− (− Indicates less than 2 fold induction)”.
For the compound `N#CC1=C(N)Oc2[nH]nc(-c3ccccn3)c2C1c1cccs1` (centres unmarked) [drawing 29/2-Pyridyl/H/H/S], the BCL2 gene induction result in the assay with BCL2 (Table 4b) is recorded as “− (− Indicates less than 2 fold induction)”. Further, the DDIT3 gene induction entry with DDIT3 (Table 4a) is reported as “− (− Indicates less than 2 fold induction)”. Moreover, in the assay with GCLM (Table 4a), the GCLM gene induction result was “+ (+ indicates a induction of greater than 2 fold)”. Moreover, the HMOX gene induction entry with HMOX (Table 4b) was “+ (+ indicates a induction of greater than 2 fold)”. The HSPA1a gene induction entry in the assay with HSPA1a (Table 4b) is on record as “− (− Indicates less than 2 fold induction)”. In addition, in the assay on HspA5 (Table 4b), the HspA5 gene induction entry is given as “− (− Indicates less than 2 fold induction)”. The TUB1 gene induction result in the assay on TUB1 (Table 4a) was “− (− Indicates less than 2 fold induction)”.
Regarding `CCCc1n[nH]c2c1C(c1ccc(C)o1)C(C#N)=C(N)O2` (centres unmarked) [drawing 29/(CH2)2Me/Me/H/O], the BCL2 gene induction entry in the assay with BCL2 (Table 4b) is given as “− (− Indicates less than 2 fold induction)”. In addition, the DDIT3 gene induction result with DDIT3 (Table 4a) is “− (− Indicates less than 2 fold induction)”. Besides, the GCLM gene induction entry with GCLM (Table 4a) was “+ (+ indicates a induction of greater than 2 fold)”. The HMOX gene induction entry in the assay on HMOX (Table 4b) is on record as “+ (+ indicates a induction of greater than 2 fold)”. Besides, the HSPA1a gene induction entry in the assay on HSPA1a (Table 4b) is on record as “− (− Indicates less than 2 fold induction)”. Also, the HspA5 gene induction entry with HspA5 (Table 4b) was “− (− Indicates less than 2 fold induction)”. In addition, the TUB1 gene induction entry in the assay on TUB1 (Table 4a) was “− (− Indicates less than 2 fold induction)”.
In the case of `COCc1n[nH]c2c1C(c1cccs1)C(C#N)=C(N)O2` (centres unmarked) [drawing 29/CH2OMe/H/H/S], the BCL2 gene induction entry with BCL2 (Table 4b) is “− (− Indicates less than 2 fold induction)”. In the assay on DDIT3 (Table 4a), the DDIT3 gene induction result is “− (− Indicates less than 2 fold induction)”. Besides, the GCLM gene induction result in the assay on GCLM (Table 4a) is “+ (+ indicates a induction of greater than 2 fold)”. The HMOX gene induction result with HMOX (Table 4b) is given as “+ (+ indicates a induction of greater than 2 fold)”. In addition, in the assay on HSPA1a (Table 4b), the HSPA1a gene induction result is listed as “− (− Indicates less than 2 fold induction)”. Moreover, in the assay on HspA5 (Table 4b), the HspA5 gene induction result was “− (− Indicates less than 2 fold induction)”. In the assay with TUB1 (Table 4a), the TUB1 gene induction entry is “− (− Indicates less than 2 fold induction)”.
